Here are results for 21 compounds from patent publication US20090239846A1, “Novel Compounds” (Glaxo Group Limited, priority 2005, published 2009).

One data set concerns the target T1, Recombinant human p38α (Homo sapiens, UniProt Q16539).
T1 construct: GST; made in house
The data set is described as follows: Fluorescence anisotropy kinase binding assay (standard or low volume). To be noted: 12 nM p38α, 5 nM fluorescent ligand. An outline of the steps: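 Activated GST-tagged recombinant human p38α (pre-activated with MBP-MKK6 DD) at 12 nM final with 5 nM rhodamine green-labelled pyridinylimidazole tracer in pH 7.5 HEPES/CHAPS/DTT/MgCl2 buffer. Test compound 0.28 nM–16.6 μM or 0.02 nM–25 μM final, 3% or 1.7% DMSO; 30–60 min at room temperature. Fluorescence anisotropy read (ex 485/em 535 nm) for Ki.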

Data set [1] relates to influx of neutrophils to the lung in LPS-challenged rats. Kind of data set: Rat LPS neutrophilia model. To be noted: LPS aerosol, lavage 4 hours later, in at least one of the range of conditions tested, significance p<0.05. The class given is in vivo. An outline of the steps: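 Rats pretreated 15 min–24 h with compound or vehicle, given intratracheally (200 ul, isoflurane anaesthesia) as suspension in various vehicles, then exposed to LPS aerosol (100 ug/ml) 15 min. BAL 4 h later; Diffquick-stained differential counts give % inhibition of neutrophils versus no-compound controls at a set concentration and pretreatment time.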

T1 sequence (Q16539 whole entry): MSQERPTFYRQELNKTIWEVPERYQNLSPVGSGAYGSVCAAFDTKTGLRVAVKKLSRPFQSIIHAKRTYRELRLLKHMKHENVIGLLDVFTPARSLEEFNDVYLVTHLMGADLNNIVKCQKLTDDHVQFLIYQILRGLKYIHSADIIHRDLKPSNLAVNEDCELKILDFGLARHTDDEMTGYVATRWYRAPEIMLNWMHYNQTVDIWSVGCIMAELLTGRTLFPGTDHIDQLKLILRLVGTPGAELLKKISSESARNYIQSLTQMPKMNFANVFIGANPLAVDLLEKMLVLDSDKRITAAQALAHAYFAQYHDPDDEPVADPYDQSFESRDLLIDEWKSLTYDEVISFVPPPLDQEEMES

On to `COc1nc(-c2cc(NC(=O)c3ccsc3)ccc2C)c2c(n1)N(c1c(F)cccc1F)C(=O)NC2` [10(e), N-{3-[8-(2,6-difluorophenyl)-2-(methyloxy)-7-oxo-5,6,7,8-tetrahydropyrimido-[4,5-d]pyrimidin-4-yl]-4-methylphenyl}-3-thiophenecarboxamide], for which the melting point is 225 to 228 °C (dec.). In addition, the “active in the assay (pIC50, p38α binding)” value (from here on “active in the assay”) at Recombinant human p38α is reported as “active”.

Regarding `Cc1ccc(C(=O)NCc2ccccc2)cc1-c1nc(N2CCC(N)CC2)nc2c1CNC(=O)N2c1c(F)cccc1F` [15(c), 3-[2-(4-Amino-1-piperidinyl)-8-(2,6-difluorophenyl)-7-oxo-5,6,7,8-tetrahydropyrimido[4,5-d]pyrimidin-4-yl]-4-methyl-N-(phenylmethyl)benzamide], the melting point was 210 to 266 °C (dec.). Further, on Recombinant human p38α, the “active in the assay” value is reported as “active”.

On to `CNCCNc1nc(-c2cc(C(=O)NCc3ccccc3)ccc2C)c2c(n1)N(c1c(F)cccc1F)C(=O)NC2` [19(b), 3-(8-(2,6-Difluorophenyl)-2-{[2-(methylamino)ethyl]amino}-7-oxo-5,6,7,8-tetrahydropyrimido[4,5-d]pyrimidin-4-yl)-4-methyl-N-(phenylmethyl)benzamide], for which the melting point was 157 to 161 °C. Further, on Recombinant human p38α, the “active in the assay” value was “active”.

As to `Cc1ccc(C(=O)NCc2ccccc2)cc1-c1nc(NC2CCNCC2)nc2c1CNC(=O)N2c1c(F)cccc1F` [21(b), 3-[8-(2,6-Difluorophenyl)-7-oxo-2-(4-piperidinylamino)-5,6,7,8-tetrahydropyrimido[4,5-d]pyrimidin-4-yl]-4-methyl-N-(phenylmethyl)benzamide], the melting point was 172 to 176 °C (dec.). In addition, the “active in the assay” value at Recombinant human p38α is recorded as “active”.

Regarding `Cc1ccc(C(=O)Nc2ccc(C)c(-c3nc(NC4CC(C)(C)NC(C)(C)C4)nc4c3CNC(=O)N4c3c(F)cccc3F)c2)cc1F` [23(e), N-(3-{8-(2,6-difluorophenyl)-7-oxo-2-[(2,2,6,6-tetramethyl-4-piperidinyl)amino]-5,6,7,8-tetrahydropyrimido[4,5-d]pyrimidin-4-yl}-4-methylphenyl)-3-fluoro-4-methylbenzamide], the melting point was 220 °C (dec.). Also, the inhibition of neutrophilia entry in data set [1] is listed as “statistically nonsignificant inhibition of neutrophilia”. The “active in the assay” value on Recombinant human p38α is recorded as “active”.

Turning to `Cc1ccc(NC(=O)c2ccsc2)cc1-c1nc(N2CCC(N)CC2)nc2c1CNC(=O)N2c1c(F)cccc1F` [Example 11, N-{3-[2-(4-amino-1-piperidinyl)-8-(2,6-difluorophenyl)-7-oxo-5,6,7,8-tetrahydropyrimido[4,5-d]pyrimidin-4-yl]-4-methylphenyl}-3-thiophenecarboxamide], the melting point is 250 to 261 °C (dec.). Moreover, the inhibition of neutrophilia entry in data set [1] is reported as “statistically significant inhibition of neutrophilia”.

For `Cc1ccc(C(=O)NCc2ccccc2)cc1-c1nc(N(C)CCCN(C)C)nc2c1CNC(=O)N2c1c(F)cccc1F` [Example 17, 3-{8-(2,6-Difluorophenyl)-2-[[3-(dimethylamino)propyl](methyl)amino]-7-oxo-5,6,7,8-tetrahydropyrimido[4,5-d]pyrimidin-4-yl}-4-methyl-N-(phenylmethyl)benzamide], the melting point was in the range of 124 to 127 °C. In data set [1], the inhibition of neutrophilia result is reported as “statistically nonsignificant inhibition of neutrophilia”.

On to `Cc1ccc(C(=O)NCc2ccccc2)cc1-c1nc(NCCNC(C)C)nc2c1CNC(=O)N2c1c(F)cccc1F` [Example 20, 3-[8-(2,6-Difluorophenyl)-2-({2-[(1-methylethyl)amino]ethyl}amino)-7-oxo-5,6,7,8-tetrahydropyrimido[4,5-d]pyrimidin-4-yl]-4-methyl-N-(phenylmethyl)benzamide], for which the melting point lay within 133 to 137 °C. For the same compound, the “active in the assay” value at Recombinant human p38α is on record as “active”.

Regarding `Cc1ccc(C(=O)NCc2ccccc2)cc1-c1nc(NC2CCN(C)CC2)nc2c1CNC(=O)N2c1c(F)cccc1F` [Example 22, 3-[8-(2,6-Difluorophenyl)-2-[(1-methyl-4-piperidinyl)amino]-7-oxo-5,6,7,8-tetrahydropyrimido[4′-d]pyrimidin-4-yl]-4-methyl-N-(phenylmethyl)benzamide], the melting point was 152 to 154 °C (dec.). For the same compound, on Recombinant human p38α, the “active in the assay” value is recorded as “active”.

With `Cc1ccc(C(=O)Nc2ccc(C)c(-c3nc(N4CCC(N)CC4)nc4c3CNC(=O)N4c3c(F)cccc3F)c2)cc1F` [Example 24, N-{3-[2-(4-amino-1-piperidinyl)-8-(2,6-difluorophenyl)-7-oxo-5,6,7,8-tetrahydropyrimido[4,5-d]pyrimidin-4-yl]-4-methylphenyl}-3-fluoro-4-methylbenzamide], the melting point is 240 °C. Besides, in data set [1], the inhibition of neutrophilia entry is on record as “statistically nonsignificant inhibition of neutrophilia”.

As to `Cc1ccc(C(=O)Nc2ccc(C)c(-c3nc(OC(C)C)nc4c3CNC(=O)N4c3c(F)cccc3F)c2)cc1F` [Example 26, N-(3-{8-(2,6-difluorophenyl)-2-[(1-methylethyl)oxy]-7-oxo-5,6,7,8-tetrahydropyrimido[4,5-d]pyrimidin-4-yl}-4-methylphenyl)-3-fluoro-4-methylbenzamide], the melting point lay in the range of 253.5 to 255.4 °C. In data set [1], the inhibition of neutrophilia entry is “inactive”.

With `Cc1ccc(C(=O)NCc2ccccc2)cc1-c1nc(N2CCN(C)CC2)nc2c1CNC(=O)N2c1c(F)cccc1F` [Example 148], the melting point is 164 to 168 °C. In data set [1], the inhibition of neutrophilia result is given as “statistically nonsignificant inhibition of neutrophilia”.

For the compound `Cc1ccc(C(=O)NCc2ccccc2)cc1-c1nc(NCCCN(C)C)nc2c1CNC(=O)N2c1c(F)cccc1F` [Example 151], the melting point lay within 141 to 144 °C. Moreover, in data set [1], the inhibition of neutrophilia result is reported as “statistically nonsignificant inhibition of neutrophilia”.

`CNC(=O)c1ccc(C)c(-c2nc(NCCN(C)C)nc3c2CNC(=O)N3c2c(F)cccc2F)c1` [Example 163(c), 3-(8-(2,6-difluorophenyl)-2-{[2-(dimethylamino)ethyl]amino}-7-oxo-5,6,7,8-tetrahydropyrimido[4,5-d]-pyrimidin-4-yl)-N,4-dimethylbenzamide]: the melting point was 155 to 158 °C (dec.). Besides, on Recombinant human p38α, the “active in the assay” value is “active”.

As to `CNC(=O)c1ccc(C)c(-c2nc(NCCCN(C)C)nc3c2CNC(=O)N3c2c(F)cccc2F)c1` [Example 166, 3-(8-(2,6-difluorophenyl)-2-{[3-(dimethylamino)propyl]amino}-7-oxo-5,6,7,8-tetrahydropyrimido[4,5-d]pyrimidin-4-yl)-N,4-dimethylbenzamide], the melting point is 164 to 167 °C (dec.). In data set [1], the inhibition of neutrophilia entry is on record as “statistically nonsignificant inhibition of neutrophilia”.

Compound `CCCCN(CCCC)CCCNc1nc(-c2cc(C(=O)NC)ccc2C)c2c(n1)N(c1c(F)cccc1F)C(=O)NC2` [Example 171, 3-[2-{[3-(dibutylamino)propyl]amino}-8-(2,6-difluorophenyl)-7-oxo-5,6,7,8-tetrahydropyrimido[4,5-d]pyrimidin-4-yl]-N,4-dimethylbenzamide] registered a melting point of 112 to 115 °C.

On to `CCN(CC)CCCNc1nc(-c2cc(C(=O)NC)ccc2C)c2c(n1)N(c1c(F)cccc1F)C(=O)NC2` [Example 172, 3-[2-{[3-(diethylamino)propyl]amino}-8-(2,6-difluorophenyl)-7-oxo-5,6,7,8-tetrahydropyrimido[4,5-d]pyrimidin-4-yl]-N,4-dimethylbenzamide], for which the melting point was 133 to 136 °C. Further, in data set [1], the inhibition of neutrophilia result is recorded as “statistically nonsignificant inhibition of neutrophilia”.

For `CNC(=O)c1ccc(C)c(-c2nc(NC3CCN(C)CC3)nc3c2CNC(=O)N3c2c(F)cccc2F)c1` [Example 173, 3-{8-(2,6-difluorophenyl)-2-[(1-methyl-4-piperidinyl)amino]-7-oxo-5,6,7,8-tetrahydropyrimido[4,5-d]pyrimidin-4-yl}-N,4-dimethylbenzamide], the melting point was 205 to 209 °C (dec.).

`CNC(=O)c1ccc(C)c(-c2nc(N(C)CCCN(C)C)nc3c2CNC(=O)N3c2c(F)cccc2F)c1` [Example 174, 3-{8-(2,6-difluorophenyl)-2-[[3-(dimethylamino)propyl](methyl)amino]-7-oxo-5,6,7,8-tetrahydropyrimido[4,5-d]pyrimidin-4-yl}-dimethylbenzamide] returned a melting point of 163 to 165 °C. Moreover, the inhibition of neutrophilia result in data set [1] is “inactive”.

Regarding `CNC(=O)c1ccc(C)c(-c2nc(N3CCC(N4CCCC4)CC3)nc3c2CNC(=O)N3c2c(F)cccc2F)c1` [Example 175, 3-{8-(2,6-difluorophenyl)-7-oxo-2-[4-(1-pyrrolidinyl)-1-piperidinyl]-5,6,7,8-tetrahydropyrimido[4,5-d]pyrimidin-4-yl}-N,4-dimethylbenzamide], the melting point is 189 to 194 °C (dec.). For the same compound, the inhibition of neutrophilia entry in data set [1] is “inactive”.

On to `CNC(=O)c1ccc(C)c(-c2nc(N3CCC(N4CCCCC4)CC3)nc3c2CNC(=O)N3c2c(F)cccc2F)c1` [Example 176, 3-[2-(1,4′-bipiperidin-1′-yl)-8-(2,6-difluorophenyl)-7-oxo-5,6,7,8-tetrahydropyrimido[4,5-d]pyrimidin-4-yl]-N,4-dimethylbenzamide], for which the melting point was 179 to 184 °C (dec.). Moreover, the inhibition of neutrophilia result in data set [1] is “statistically nonsignificant inhibition of neutrophilia”.
